This is an account of results in ChEMBL document CHEMBL1201862, “PubChem BioAssay data set” (2004).

Molecules are shown by their SMILES. Calls of active or inactive are those of the source.

Experiment [1] can be described thus: Counterscreen for IDE inhibitors: Luminescence-based cell-based high throughput dose response assay to identify compounds that are cytotoxic to HEK cells. [Related pubchem assays: 434962 (Primary screen (IDE inhibitors in singlicate)), 449730 (Counterscreen (Cytotoxicity in triplicate)), 435028 (Confirmation (IDE inhibitors in triplicate)) …. It is filed as functional. The settings on record: HEK293.

Experiment [2] deals with Insulin-degrading enzyme (Homo sapiens, UniProt P14735). The experiment can be described thus: Dose Response: Fluorescence polarization-based cell-based high throughput dose response assay for inhibitors of insulin-degrading enzyme (IDE). [Related pubchem assays: 434962 (Primary screen (IDE inhibitors in singlicate)), 449730 (Counterscreen (Cytotoxicity in triplicate)), 435028 (Confirmation (IDE inhibitors in triplicate)), 434984 (Summary …. The class given is functional.
Insulin-degrading enzyme, sequence (P14735 whole entry): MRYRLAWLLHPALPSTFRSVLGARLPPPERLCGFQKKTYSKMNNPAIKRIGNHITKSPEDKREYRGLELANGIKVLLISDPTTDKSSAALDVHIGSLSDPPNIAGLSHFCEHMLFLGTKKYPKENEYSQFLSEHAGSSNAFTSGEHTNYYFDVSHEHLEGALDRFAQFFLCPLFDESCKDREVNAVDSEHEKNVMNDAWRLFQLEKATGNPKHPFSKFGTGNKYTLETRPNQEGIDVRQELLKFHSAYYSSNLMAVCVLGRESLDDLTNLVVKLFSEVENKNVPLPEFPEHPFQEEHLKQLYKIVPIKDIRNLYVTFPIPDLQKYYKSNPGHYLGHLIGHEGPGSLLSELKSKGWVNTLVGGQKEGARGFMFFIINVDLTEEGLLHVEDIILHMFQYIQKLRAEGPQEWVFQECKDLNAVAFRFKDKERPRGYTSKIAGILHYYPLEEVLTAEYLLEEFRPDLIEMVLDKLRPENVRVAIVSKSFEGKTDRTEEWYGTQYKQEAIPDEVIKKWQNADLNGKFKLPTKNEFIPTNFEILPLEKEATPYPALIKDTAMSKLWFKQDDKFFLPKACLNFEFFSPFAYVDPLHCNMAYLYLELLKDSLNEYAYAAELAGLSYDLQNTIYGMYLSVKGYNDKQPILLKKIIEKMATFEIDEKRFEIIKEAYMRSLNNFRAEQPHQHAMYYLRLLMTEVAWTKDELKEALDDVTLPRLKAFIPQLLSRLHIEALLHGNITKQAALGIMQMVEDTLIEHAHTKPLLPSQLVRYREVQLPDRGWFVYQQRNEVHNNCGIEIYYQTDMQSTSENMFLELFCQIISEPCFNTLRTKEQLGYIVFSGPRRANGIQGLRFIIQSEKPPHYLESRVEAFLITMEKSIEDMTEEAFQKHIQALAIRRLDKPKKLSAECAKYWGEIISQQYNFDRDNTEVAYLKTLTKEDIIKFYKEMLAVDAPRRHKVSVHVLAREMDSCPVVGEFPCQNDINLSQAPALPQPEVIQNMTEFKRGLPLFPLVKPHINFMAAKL

In experiment [3] the target is Induced myeloid leukemia cell differentiation protein Mcl-1 (Homo sapiens, UniProt Q07820). It is filed as functional.
Induced myeloid leukemia cell differentiation protein Mcl-1, sequence (Q07820 whole entry): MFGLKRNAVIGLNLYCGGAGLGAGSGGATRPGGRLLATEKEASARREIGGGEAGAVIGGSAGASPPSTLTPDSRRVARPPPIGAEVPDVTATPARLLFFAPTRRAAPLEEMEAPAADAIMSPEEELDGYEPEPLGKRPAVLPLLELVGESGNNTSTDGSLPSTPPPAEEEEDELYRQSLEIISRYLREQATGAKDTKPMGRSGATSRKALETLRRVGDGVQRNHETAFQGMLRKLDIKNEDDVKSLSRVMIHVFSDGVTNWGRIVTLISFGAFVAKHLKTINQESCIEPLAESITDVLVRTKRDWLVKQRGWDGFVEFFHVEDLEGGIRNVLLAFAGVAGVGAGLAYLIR
Experiment [4] concerns the target T1, Tyrosine-protein phosphatase non-receptor type 7 (Homo sapiens, UniProt P35236).
T1 sequence (P35236 whole entry): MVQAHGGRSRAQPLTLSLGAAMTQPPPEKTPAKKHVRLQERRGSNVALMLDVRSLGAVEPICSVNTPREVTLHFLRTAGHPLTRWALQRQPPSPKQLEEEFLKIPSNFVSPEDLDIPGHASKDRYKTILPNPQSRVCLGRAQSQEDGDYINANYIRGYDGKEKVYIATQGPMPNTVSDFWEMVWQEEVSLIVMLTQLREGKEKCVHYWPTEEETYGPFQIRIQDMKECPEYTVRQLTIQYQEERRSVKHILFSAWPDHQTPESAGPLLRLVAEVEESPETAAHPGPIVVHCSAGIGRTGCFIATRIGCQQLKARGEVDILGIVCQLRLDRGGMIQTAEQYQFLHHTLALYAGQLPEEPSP
The experiment can be described thus: HePTP tyrosine phosphatase activity blockers – biochemical, absorbance, leukemia target, primary screen (AID 521). It is filed as functional.

Experiment [5] has as its target Glyceraldehyde-3-phosphate dehydrogenase (Homo sapiens, UniProt P04406).
In experiment [6] the target is T2, Bcl-2-related protein A1 (Mus musculus, UniProt Q07440).
T2 sequence (Q07440 whole entry): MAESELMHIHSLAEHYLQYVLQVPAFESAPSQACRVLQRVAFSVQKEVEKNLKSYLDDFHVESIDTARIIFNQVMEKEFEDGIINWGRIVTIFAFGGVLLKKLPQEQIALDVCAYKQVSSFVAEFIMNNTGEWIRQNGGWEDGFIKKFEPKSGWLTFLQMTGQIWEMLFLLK
Put plainly: small-molecule antagonists of Bfl-1/BH3 interaction – biochemical, TR-FRET, mouse Bfl-1, confirmation (AID 621).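 Note: TR-FRET binding of GST-Bfl-1 to FITC-labelled Bid peptide via terbium antibody.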

The target in experiment [7] is T2, Bcl-2-related protein A1. The experiment can be described thus: Bfl-1 binding inhibitors, SAR follow-up, biochemical, fluorescence polarization (AID 1070).
Experiment [8] is described as follows: viability of uninfected HEp-2 cells – cell-based, HTS, cytotoxicity control for RSV inhibitor project, dose response (AID 2410). It is filed as functional. Particulars: human respiratory syncytial virus.
The nature of experiment [9]: cells.
For experiment [10], the target named is Luciferin 4-monooxygenase (Photinus pyralis, UniProt P08659). Put plainly: Counter Screen for Luciferase-based Assay Positives. [Related pubchem assays: 620, 618, 411 ].
Luciferin 4-monooxygenase, sequence (P08659 whole entry): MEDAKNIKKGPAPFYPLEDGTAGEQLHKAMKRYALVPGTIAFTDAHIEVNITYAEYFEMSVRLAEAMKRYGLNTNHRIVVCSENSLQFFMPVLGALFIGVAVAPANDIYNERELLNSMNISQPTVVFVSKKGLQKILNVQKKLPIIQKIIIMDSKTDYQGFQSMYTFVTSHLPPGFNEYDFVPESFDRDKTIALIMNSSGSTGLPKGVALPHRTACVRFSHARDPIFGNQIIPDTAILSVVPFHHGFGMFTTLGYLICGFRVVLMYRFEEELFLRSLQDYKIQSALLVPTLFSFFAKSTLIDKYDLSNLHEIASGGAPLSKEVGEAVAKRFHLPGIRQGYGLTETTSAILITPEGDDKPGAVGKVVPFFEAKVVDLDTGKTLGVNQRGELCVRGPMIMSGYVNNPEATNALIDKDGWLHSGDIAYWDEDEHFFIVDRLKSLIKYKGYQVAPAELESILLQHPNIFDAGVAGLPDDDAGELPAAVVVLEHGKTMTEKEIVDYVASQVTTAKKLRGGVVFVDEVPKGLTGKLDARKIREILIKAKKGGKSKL
The test system of experiment [11] is HT-1080. Put plainly: HT1080 cell viability loss – fluorescence readout (AID 620). It is filed as functional, cell-based. The settings on record: Homo sapiens.
For experiment [12], the system named is HEK293. Put plainly: EBV LMP1 TES2 canonical NF-kB signalling blockers – cell-based, HEK293, luciferase, cherry-pick, dose response (AID 588343). The class given is functional. The settings on record: Homo sapiens.
Experiment [13] in a line: luciferase reporter signal suppression in cells – H4 neuroglioma cells, luminescence, dose response (AID 1990). The class given is functional, cell-based.
Experiment [14] relates to HeLa. Put plainly: Cytotoxicity counterscreen assay for transcriptional activators of heat shock protein 70 (Hsp70). [Related pubchem assays: 1203, 1252 ]. The class given is functional. The settings on record: Homo sapiens.
The subject of experiment [15] is BJ. The experiment can be described thus: BJ-TERT fibroblast viability loss – cell-based, RAS-independent, luminescence, dose response (AID 1933). It is filed as functional. The settings on record: Homo sapiens.
A short description of experiment [16]: A Cell Based Secondary Assay To Explore Cytotoxicity of Compounds that Sensitize Mycobacterium Tuberculosis to Beta-Lactam Antibiotics. It is filed as functional.
Experiment [17] can be described thus: Luminescence Cell-Based Dose Response HTS to Identify Inhibitors of 5'UTR Stem-Loop Driven Prion Protein mRNA Translation in H4 Neuroglioblastoma Cells. [Related pubchem assays: 1827 (Project Summary), 1813 (Primary HTS)]. The class given is functional.
A short description of experiment [18]: alpha-synuclein stem-loop luciferase translation blockers – H4 neuroglioma cells, luminescence, confirmation (AID 1988). It is filed as functional, cell-based.
Experiment [19] concerns BJ. Put plainly: cells. It is filed as functional, cell-based. Particulars: Homo sapiens.
Experiment [20] relates to BJ. The experiment can be described thus: BJ-TERT-LT-ST fibroblast viability loss – cell-based, RAS-independent, luminescence, dose response (AID 1935).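 Note: BJ fibroblasts immortalized with TERT plus LT and ST oncogenes.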 It is filed as functional. The settings on record: Homo sapiens.
The nature of experiment [21]: DRD fibroblast viability loss – cell-based, non-viral oncogenic, luminescence, dose response (AID 1934). It is filed as functional. The settings on record: Homo sapiens.

Glyceraldehyde-3-phosphate dehydrogenase, sequence (P04406 whole entry): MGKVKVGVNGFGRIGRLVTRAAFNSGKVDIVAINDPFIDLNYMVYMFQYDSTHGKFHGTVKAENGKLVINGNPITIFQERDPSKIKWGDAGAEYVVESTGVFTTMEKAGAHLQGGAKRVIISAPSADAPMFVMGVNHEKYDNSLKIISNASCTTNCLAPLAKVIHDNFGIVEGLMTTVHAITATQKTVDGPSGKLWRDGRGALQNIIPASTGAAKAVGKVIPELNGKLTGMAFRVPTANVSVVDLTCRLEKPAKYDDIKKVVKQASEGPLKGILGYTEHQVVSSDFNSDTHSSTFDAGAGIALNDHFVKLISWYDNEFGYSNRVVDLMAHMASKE

In the case of `CC(=O)N(C(C)=O)c1nc(-c2ccccc2)cn1/N=C/c1ccccc1`, the IC50 is listed as 20 µM (not active) in experiment [1] and > 55.9 µM (not active) in experiment [2].

In the case of `CCO/C(O)=C1\C(C)=NC2=C(C(=O)CC(C)(C)C2)C1c1ccc2c(c1)CCCN2C` (stereo not drawn), in [3], the IC50 is listed as 1.65 µM (not active).

Consider `CCN(CC)c1ccc(C(=O)OCC(=O)N2CCN(c3ccccc3)CC2)cc1`, for which the IC50 in experiment [4] is > 100 µM (not active).

With `CCCCNC(=O)c1cc(-c2ccc(OC)c(OC)c2)on1`, the IC50 in [4] was > 100 µM (not active).

As to `O=C1C(Cl)=C(N2CCN(Cc3ccc4c(c3)OCO4)CC2)C(=O)N1c1ccc(Cl)c(Cl)c1`, the IC50 in [5] was > 100 µM (not active); in experiment [6] it was 2.14 µM (active); in experiment [7], 4.07 µM (active).

As for `CC(OC(=O)c1cccc(N2C(=O)c3ccccc3C2=O)c1)C(=O)Nc1ccc(N(C)C)cc1` (stereo not drawn), in experiment [3], the IC50 was 6.19 µM (not active).

On to `COCc1cc(C)nc(SCC(=O)Nc2ccccc2N2CCOCC2)c1C#N`, for which, in experiment [8], the CC50 is > 50 µM (active). For the same compound, in experiment [9], the IC50 was 9.24 µM (active).

Regarding `C/C(=N/NC(=O)c1cc(C2CC2)[nH]n1)c1cccs1`, the EC50 is reported as > 100 µM (not active) in experiment [10] and > 50 µM (not active) in [11]. In addition, the AC50 in experiment [12] is 1.63 µM (active).

Turning to `C=CCSc1nccc(-c2nn(-c3ccc(C)cc3)ccc2=O)n1`, the EC50 in experiment [13] is 9.46 µM (active); in [15], 15.6 µM (active); in [17], > 120 µM (not active); in experiment [18], 7.52 µM (active); in [19], 111 µM (active); in experiment [20], 90.2 µM (active). Also, the EC50 in experiment [21] is 3.51 µM (inconclusive). The cytotoxic concentration (CC50) is > 33 µM (not active) in experiment [14] and 16.7 µM (active) in experiment [16].
